pIC50: −log10 of the molar value.
Biological target: human HPK1 (MAP4K1) (Homo sapiens (Human), UniProt Q92918)
Assay: HPK1 IC50 Assay (TR-FRET peptide phosphorylation)
Assay type: biochemical
Conditions: recombinant HPK1 kinase domain 0.15 nM, 10 μM ATP, 1 μM STK S1 peptide; geometric mean of multiple experiments
In short: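 Pre-activated, dually phosphorylated baculovirus-expressed HPK1 kinase domain (0.15 nM) preincubated 15 min with compound, then reacted 3 h at 25° C with 10 μM ATP and 1 μM STK S1 peptide in BES pH 7.0 buffer. Phosphopeptide read by TR-FRET (665/620 nm); four-parameter fit, geometric-mean IC50.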

Sequence of human HPK1 (MAP4K1) (Q92918 17-274): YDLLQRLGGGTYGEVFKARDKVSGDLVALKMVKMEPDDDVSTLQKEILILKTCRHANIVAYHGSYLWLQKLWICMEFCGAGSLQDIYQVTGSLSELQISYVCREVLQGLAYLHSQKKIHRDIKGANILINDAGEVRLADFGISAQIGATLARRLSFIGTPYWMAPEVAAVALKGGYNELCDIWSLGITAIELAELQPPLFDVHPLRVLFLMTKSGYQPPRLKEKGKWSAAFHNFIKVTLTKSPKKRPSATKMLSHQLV

Compound | pIC50
CC[C@H](C)n1cnc2cc(-c3ccc4c(c3)N([C@H]3C[C@@H](N5CCCCC5)C3)C(=O)C4(C)C)nc(Nc3ccc(Cl)c(C(=O)NC)c3)c21 [Example 114] | 10.30
CC(C)NC(=O)c1cc(Nc2nc(-c3ccc4c(c3)N([C@H]3C[C@@H](N5CCCCC5)C3)C(=O)C4(C)C)cc3ncn(C(C)C)c23)ccc1Cl [Example 115] | 10.00
COCCNC(=O)c1cc(Nc2nc(-c3ccc4c(c3)N([C@H]3C[C@@H](N5CCCCC5)C3)C(=O)C4(C)C)cc3ncn(C(C)C)c23)c(F)cc1C [Example 116] | 9.70
CC(C)NC(=O)c1cc(Nc2nc(-c3ccc4c(c3)N([C@H]3C[C@@H](N5CCCCC5)C3)C(=O)C4(C)C)cc3ncn(C(C)C)c23)c(F)cc1Cl [Example 117] | 9.70
CNC(=O)c1cc(Nc2nc(-c3ccc4c(c3)N([C@H]3C[C@@H](N5CCCCC5)C3)C(=O)C4(C)C)cc3ncn(C(C)C)c23)c(F)cc1Cl [Example 118] | 10.05
CNC(=O)c1cc(Nc2nc(-c3ccc4c(c3)N([C@H]3C[C@@H](N5CCCCC5)C3)C(=O)C4(C)C)cc3ncn(C(C)C)c23)ccc1Cl [Example 119] | 10.15
CNC(=O)c1cc(Nc2nc(-c3ccc4c(c3)N([C@H]3C[C@@H](N5CC(C)(C)C5)C3)C(=O)C4(C)C)cc3ncn(C(C)C)c23)c(F)cc1C [Example 120] | 9.70
Cc1ccc(Nc2nc(-c3ccc4c(c3)N([C@H]3C[C@@H](N5CC(C)(C)C5)C3)C(=O)C4(C)C)cc3ncn(C(C)C)c23)cc1C(=O)NC1CC1 [Example 121] | 10.00
CNC(=O)c1cc(Nc2nc(-c3ccc4c(c3)N([C@H]3C[C@@H](N5CC(C)(C)C5)C3)C(=O)C4(C)C)cc3ncn(C(C)C)c23)ccc1C [Example 122] | 10.00
CNC(=O)c1cc(Nc2nc(-c3ccc4c(c3)N([C@H]3C[C@@H](N5CCCCC5)C3)C(=O)C43CCOCC3)cc3ncn(C(C)C)c23)ccc1C [Example 123] | 10.00
Cc1cc(F)c(Nc2nc(-c3ccc4c(c3)N([C@H]3C[C@@H](N5CCCCC5)C3)C(=O)C43CCOCC3)cc3ncn(C(C)C)c23)cc1C(=O)NC(C)C [Example 125] | 9.70
Cc1ccc(Nc2nc(-c3ccc4c(c3)N([C@H]3C[C@@H](N5CCCCC5)C3)C(=O)C43CCOCC3)cc3ncn(C4CC4)c23)cc1C(N)=O [Example 126] | 10.15
CNC(=O)c1cc(Nc2nc(-c3ccc4c(c3)N([C@H]3C[C@@H](N5CCCCC5)C3)C(=O)C43CCOCC3)cc3ncn(C4CC4)c23)ccc1C [Example 127] | 10.00
CC[C@H](C)n1cnc2cc(-c3ccc4c(c3)N([C@H]3C[C@@H](N5CCCCC5)C3)C(=O)C4(C)C)nc(Nc3ccc(C)c(C(=O)NC)c3)c21 [Example 128] | 10.00
CC(=O)N1CCC2(CC1)C(=O)N([C@H]1C[C@@H](N3CCCCC3)C1)c1cc(-c3cc4ncn(C(C)C)c4c(Nc4cc(C(=O)NC(C)C)c(C)cc4F)n3)ccc12 [Example 129] | 9.70
CCNC(=O)c1cc(Nc2nc(-c3ccc4c(c3)N([C@H]3C[C@@H](N5CCCCC5)C3)C(=O)C43CCN(C(C)=O)CC3)cc3ncn(C(C)C)c23)ccc1C [Example 130] | 10.00

Compound | pIC50
COCCNC(=O)c1cc(Nc2nc(-c3ccc4c(c3)N([C@H]3C[C@@H](N5CCCCC5)C3)C(=O)C43CCN(C(C)=O)CC3)cc3ncn(C(C)C)c23)ccc1C [Example 131] | 9.70
CC(=O)N1CCC2(CC1)C(=O)N([C@H]1C[C@@H](N3CCCCC3)C1)c1cc(-c3cc4ncn(C(C)C)c4c(Nc4ccc(C)c(C(=O)NCCO)c4)n3)ccc12 [Example 132] | 10.00
CCn1cnc2cc(-c3ccc4c(c3)N([C@H]3C[C@@H](NC(=O)C(C)(C)C)C3)C(=O)C4(C)C)nc(Nc3ccc(C)c(C(N)=O)c3)c21 [Example 133] | 9.05
Cc1cc(F)c(Nc2nc(-c3cnc4c(c3)N([C@H]3C[C@@H](N5CCCCC5)C3)C(=O)C4(C)C)cc3ncn(C(C)C)c23)cc1C(=O)NC1(CF)CC1 [Example 134] | 9.52
Cc1ccc(Nc2nc(-c3ccc4c(c3)N([C@H]3C[C@@H](NC(=O)C(C)(C)C)C3)C(=O)C4(C)C)cc3ncn(C(C)C)c23)cc1C(N)=O [Example 135, 5-((6-(3,3-dimethyl-2-oxo-1-((1s,3s)-3-pivalamidocyclobutyl)indolin-6-yl)-3-isopropyl-3H-imidazo[4,5-c]pyridin-4-yl)amino)-2-methylbenzamide] | 9.22
Cc1ccc(Nc2nc(-c3ccc4c(c3)N([C@H]3C[C@@H](N5CCCCC5)C3)C(=O)C4(C)C)cc3ncn(C(C)C)c23)cc1C(=O)NC(C)C [Example 136, 5-((6-(3,3-dimethyl-2-oxo-1-((1s,3s)-3-(piperidin-1-yl)cyclobutyl)indolin-6-yl)-3-isopropyl-3H-imidazo[4,5-c]pyridin-4-yl)amino)-N-isopropyl-2-methylbenzamide] | 10.00
COCCNC(=O)c1cc(Nc2nc(-c3ccc4c(c3)N([C@H]3C[C@@H](N5CCCCC5)C3)C(=O)C4(C)C)cc3ncn(C(C)C)c23)ccc1C [Example 137] | 10.00
CCNC(=O)c1cc(Nc2nc(-c3ccc4c(c3)N([C@H]3C[C@@H](N5CCCCC5)C3)C(=O)C4(C)C)cc3ncn(C(C)C)c23)ccc1C [Example 138] | 10.00
Cc1ccc(Nc2nc(-c3ccc4c(c3)N([C@H]3C[C@@H](N5CCCCC5)C3)C(=O)C4(C)C)cc3ncn(C(C)C)c23)cc1C(=O)NCC(C)C [Example 139] | 10.22
CNC(=O)c1cc(Nc2nc(-c3ccc4c(c3)N([C@H]3C[C@@H](N5CCCCC5)C3)C(=O)C4(C)C)cc3ncn(C(C)C)c23)ccc1OC(F)(F)F [Example 140] | 9.52
CNC(=O)c1cc(Nc2nc(-c3ccc4c(c3)N([C@H]3C[C@@H](N5CCCCC5)C3)C(=O)C4(C)C)cc3ncn(C(C)C)c23)ccc1C(F)(F)F [Example 141] | 10.15
CNC(=O)c1cc(Nc2nc(-c3ccc4c(c3)N([C@H]3C[C@@H](N5CCCCC5)C3)C(=O)C4(C)C)cc3ncn(C(C)C)c23)ccc1C1CC1 [Example 142] | 9.70
CCc1ccc(Nc2nc(-c3ccc4c(c3)N([C@H]3C[C@@H](N5CCCCC5)C3)C(=O)C4(C)C)cc3ncn(C(C)C)c23)cc1C(=O)NC [Example 143] | 10.22
Cc1c(C(=O)NC2(C(F)F)CC2)cc(Nc2nc(-c3ccc4c(c3)N([C@H]3C[C@@H](N5CCCCC5)C3)C(=O)C4(C)C)cc3ncn(C(C)C)c23)c(F)c1F [Example 144] | 10.15
Cc1c(C(=O)NC2(C(F)F)CC2)cc(Nc2nc(-c3ccc4c(c3)N([C@H]3C[C@@H](N5C[C@H]6CC[C@@H]5C6)C3)C(=O)C4(C)C)cc3ncn(C(C)C)c23)c(F)c1F [Example 145, 5-((6-(1-((1S,3s)-3-((1R,4S)-2-azabicyclo[2.2.1]heptan-2-yl)cyclobutyl)-3,3-dimethyl-2-oxoindolin-6-yl)-3-isopropyl-3H-imidazo[4,5-c]pyridin-4-yl)amino)-N-(1-(difluoromethyl)cyclopropyl)-3,4-difluoro-2-methylbenzamide] | 10.15
CNC(=O)c1cc(Nc2nc(-c3ccc4c(c3)N([C@H]3C[C@@H](N5CCCCC5)C3)C(=O)C43CCN(C(=O)C(C)(C)O)CC3)cc3ncn(C(C)C)c23)ccc1C [Example 146, 5-((6-(1′-(2-hydroxy-2-methylpropanoyl)-2-oxo-1-((1s,3s)-3-(piperidin-1-yl)cyclobutyl)spiro[indoline-3,4′-piperidin]-6-yl)-3-isopropyl-3H-imidazo[4,5-c]pyridin-4-yl)amino)-N,2-dimethylbenzamide] | 10.00

Source: US11203591B2, “Substituted 6-azabenzimidazole compounds” (Gilead Sciences, Inc., priority 2018, dated 2021)
